From US11000033B2, “Ketone or oxime compound, and herbicide” (NISSAN CHEMICAL CORPORATION, priority 2014, dated 2021)

Assays:
Type in all cases: in vivo
Chenopodium album = test: Test Example 4: herbicidal effect by soil treatment (symbol O); conditions: application herbicide amount 320 g/ha
How it was run: (§1)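 Seeds were sown in sterilized diluvial soil, covered with about 1.5 cm of soil, and the soil surface was sprayed with a water-diluted emulsion of the compound at a predetermined rate. Plants grew in a greenhouse at 25° C. to 30° C.; effects were scored visually 3 weeks after application.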

Monochoria vaginalis = test: Test Example 1: herbicidal activity, application before weed generation in submerged conditions (symbol C); conditions: application herbicide amount 320 g/ha
How it was run: (§2)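 0–5 visual score, 3 wk post-application. Submerged pots, alluvial soil, water 4 cm; seeds sown mixed, rice at 2.5 leaves transplanted. Emulsion diluted to predetermined dose, applied to water surface at sowing. 25–30 °C greenhouse.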

rice = test: Test Example 4: effect on crop by soil treatment (symbol b); conditions: application herbicide amount 320 g/ha
How it was run: (§3)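 The test used sterilized diluvial soil. Seed was set down in spots and overlaid with about 1.5 cm of soil before growth in a greenhouse kept at 25° C. to 30° C.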

soybean = test: Test Example 4: effect on crop by soil treatment (symbol d); conditions: application herbicide amount 320 g/ha
How it was run: as §3

Lolium multiflorum Lam. [1] = test: Test Example 4: herbicidal effect by soil treatment (symbol K); conditions: application herbicide amount 320 g/ha
How it was run: as §1

[2] = tested on: Echinochloa oryzacola Vasing.; test: Test Example 1: herbicidal activity, application before weed generation in submerged conditions (symbol A); conditions: application herbicide amount 320 g/ha
How it was run: as §2

[3] = tested on: directly sowed rice plant; test: Test Example 3: effect on crop by foliage application, Wagner pot (symbol b); conditions: application herbicide amount 320 g/ha
How it was run: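 Plants are raised from seed in flooded paddy conditions: water stands 0.1–0.5 cm over alluvial soil, and the pot is kept in a greenhouse at 25–30 °C. Species sown are barnyardgrass (E. crus-galli var. crus-galli), Leptochloa chinensis, Cyperus difformis and rice.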

Alopecurus myosuroides = test: Test Example 5: herbicidal effect by foliage application, plastic box (symbol J); conditions: 320 g/ha, 3 weeks after application
How it was run: (§4)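 Effect is rated 3 weeks after a foliar spray of water-diluted emulsion concentrate at a predetermined herbicide amount. Plants had grown 14 days in a 25° C. to 30° C. greenhouse from seed in sterilized diluvial soil.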

Lolium multiflorum Lam. [4] = test: Test Example 5: herbicidal effect by foliage application, plastic box (symbol K); conditions: 320 g/ha, 3 weeks after application
How it was run: as §4

Abutilon theophrasti = test: Test Example 5: herbicidal effect by foliage application, plastic box (symbol M); conditions: 320 g/ha, 3 weeks after application
How it was run: as §4

rice plant = test: Test Example 5: effect on crop by foliage application, plastic box (symbol b); conditions: 320 g/ha, 3 weeks after application
How it was run: (§5)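 Diluvial soil, sterilized and boxed (21 × 13 × 7 cm), received spot-sown seed covered by about 1.5 cm soil; plants were then greenhouse-grown at 25–30° C.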

transplanted rice plant = test: Test Example 1: effect on crop, application before weed generation in submerged conditions (symbol a); conditions: application herbicide amount 320 g/ha
How it was run: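 Alluvial soil pots flooded to 4 cm water, sown with Echinochloa oryzacola, Scirpus juncoides and Monochoria vaginalis, then transplanted with 2.5 leaf stage rice seedlings; pre-emergence application. Greenhouse 25° C. to 30° C.; scored 0–5 by herbicidal ratio 3 weeks after application.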

Digitaria ciliaris = test: Test Example 5: herbicidal effect by foliage application, plastic box (symbol F); conditions: 320 g/ha, 3 weeks after application
How it was run: as §4

corn = test: Test Example 5: effect on crop by foliage application, plastic box (symbol c); conditions: 320 g/ha, 3 weeks after application
How it was run: as §5

Amaranthus retroflexus = test: Test Example 5: herbicidal effect by foliage application, plastic box (symbol N); conditions: 320 g/ha, 3 weeks after application
How it was run: as §4

[5] = tested on: Echinochloa crus-galli var. crus-galli; test: Test Example 5: herbicidal effect by foliage application, plastic box (symbol H); conditions: 320 g/ha, 3 weeks after application
How it was run: as §4

Structure (SMILES) | O: Chenopodium album, herbicidal effect grade (Chenopodium album) | Herbicidal effect grade, C: Monochoria vaginalis (Monochoria vaginalis) | b: directly sowed rice plant, effect on crop grade (rice) | d: soybean, effect on crop grade (soybean) | K: Lolium multiflorum Lam., herbicidal effect grade (Lolium multiflorum Lam. [1]) | Herbicidal effect grade, A: Echinochloa oryzacola Vasing. [2] | effect on crop b (directly sowed rice plant), grade 0-5 [3] | J: Alopecurus myosuroides, herbicidal effect (criteria of Test Example 1) (Alopecurus myosuroides) | K: Lolium multiflorum Lam., herbicidal effect (criteria of Test Example 1) (Lolium multiflorum Lam. [4]) | M: Abutilon theophrasti, herbicidal effect (criteria of Test Example 1) (Abutilon theophrasti) | b: directly sowed rice plant, effect on crop (criteria of Test Example 1) (rice plant) | Effect grade on crop, a: transplanted rice plant (transplanted rice plant) | F: Digitaria ciliaris, herbicidal effect (criteria of Test Example 1) (Digitaria ciliaris) | c: corn, effect on crop (criteria of Test Example 1) (corn) | N: Amaranthus retroflexus, herbicidal effect (criteria of Test Example 1) (Amaranthus retroflexus) | H: Echinochloa crus-galli var. crus-galli, herbicidal effect (criteria of Test Example 1) [5]
CON=C(C)CC1CC(O)=C(c2c(C)cc(-c3ccc(Cl)cc3)cc2OC)C1=O (stereo not shown) [6-077, 2-(4′-chloro-3-methoxy-5-methyl-[1,1′-biphenyl]-4-yl)-3-hydroxy-5-{2-(methoxyimino)propyl}cyclopent-2-enone] | 4 (Herbicidal ratio of 70% or higher and lower than 90%) | 3 (Herbicidal ratio of 40% or higher and lower than 70%) | 5 (Herbicidal ratio of 90% or more (almost completely withered)) | 0 (Herbicidal ratio of 5% or lower (almost no effect)) | 5 (Herbicidal ratio of 90% or more (almost completely withered)) | 5 (Herbicidal ratio of 90% or more (almost completely withered)) | 5 (Herbicidal ratio of 90% or more (almost completely withered)) | 5 (Herbicidal ratio of 90% or more (almost completely withered)) | 5 (Herbicidal ratio of 90% or more (almost completely withered)) | 5 (Herbicidal ratio of 90% or more (almost completely withered)) | 5 (Herbicidal ratio of 90% or more (almost completely withered)) | 5 (Herbicidal ratio of 90% or more (almost completely withered)) | 5 (Herbicidal ratio of 90% or more (almost completely withered)) | 5 (Herbicidal ratio of 90% or more (almost completely withered)) | 1 (Herbicidal ratio of 5% or higher and lower than 20%) | 5 (Herbicidal ratio of 90% or more (almost completely withered))
CON=C(C)CC1CC(OC(=O)COc2ccccc2)=C(c2c(C)cc(-c3ccc(Cl)cc3)cc2OC)C1=O (stereo not shown) [6-079] | 0 (Herbicidal ratio of 5% or lower (almost no effect)) | 2 (Herbicidal ratio of 20% or higher and lower than 40%) | 3 (Herbicidal ratio of 40% or higher and lower than 70%) | 0 (Herbicidal ratio of 5% or lower (almost no effect)) | 5 (Herbicidal ratio of 90% or more (almost completely withered)) | 4 (Herbicidal ratio of 70% or higher and lower than 90%) | 5 (Herbicidal ratio of 90% or more (almost completely withered)) | 5 (Herbicidal ratio of 90% or more (almost completely withered)) | 5 (Herbicidal ratio of 90% or more (almost completely withered)) | 4 (Herbicidal ratio of 70% or higher and lower than 90%) | 5 (Herbicidal ratio of 90% or more (almost completely withered)) | 5 (Herbicidal ratio of 90% or more (almost completely withered)) | 5 (Herbicidal ratio of 90% or more (almost completely withered)) | 5 (Herbicidal ratio of 90% or more (almost completely withered)) | 0 (Herbicidal ratio of 5% or lower (almost no effect)) | 5 (Herbicidal ratio of 90% or more (almost completely withered))
CON=C(C)CC1CC(OC(=O)CCCC(C)=O)=C(c2c(C)cc(-c3ccc(Cl)cc3)cc2C)C1=O (stereo not shown) [6-080] | 0 (Herbicidal ratio of 5% or lower (almost no effect)) | 2 (Herbicidal ratio of 20% or higher and lower than 40%) | 0 (Herbicidal ratio of 5% or lower (almost no effect)) | 0 (Herbicidal ratio of 5% or lower (almost no effect)) | 5 (Herbicidal ratio of 90% or more (almost completely withered)) | 5 (Herbicidal ratio of 90% or more (almost completely withered)) | 5 (Herbicidal ratio of 90% or more (almost completely withered)) | 5 (Herbicidal ratio of 90% or more (almost completely withered)) | 5 (Herbicidal ratio of 90% or more (almost completely withered)) | 4 (Herbicidal ratio of 70% or higher and lower than 90%) | 5 (Herbicidal ratio of 90% or more (almost completely withered)) | 5 (Herbicidal ratio of 90% or more (almost completely withered)) | 5 (Herbicidal ratio of 90% or more (almost completely withered)) | 5 (Herbicidal ratio of 90% or more (almost completely withered)) | 0 (Herbicidal ratio of 5% or lower (almost no effect)) | 5 (Herbicidal ratio of 90% or more (almost completely withered))
CON=C(C)CC1CC(OC(=O)SC(C)(C)C)=C(c2c(C)cc(-c3ccc(Cl)cc3)cc2C)C1=O (stereo not shown) [6-082] | 0 (Herbicidal ratio of 5% or lower (almost no effect)) | 4 (Herbicidal ratio of 70% or higher and lower than 90%) | 1 (Herbicidal ratio of 5% or higher and lower than 20%) | 0 (Herbicidal ratio of 5% or lower (almost no effect)) | 5 (Herbicidal ratio of 90% or more (almost completely withered)) | 5 (Herbicidal ratio of 90% or more (almost completely withered)) | 5 (Herbicidal ratio of 90% or more (almost completely withered)) | 5 (Herbicidal ratio of 90% or more (almost completely withered)) | 5 (Herbicidal ratio of 90% or more (almost completely withered)) | 4 (Herbicidal ratio of 70% or higher and lower than 90%) | 5 (Herbicidal ratio of 90% or more (almost completely withered)) | 5 (Herbicidal ratio of 90% or more (almost completely withered)) | 5 (Herbicidal ratio of 90% or more (almost completely withered)) | 5 (Herbicidal ratio of 90% or more (almost completely withered)) | 1 (Herbicidal ratio of 5% or higher and lower than 20%) | 5 (Herbicidal ratio of 90% or more (almost completely withered))
